CC1=NN(c2ccccc2)C(=O)C1
solubility (mole fraction)
Settings	273.15 K	278.15 K	283.15 K	288.15 K	293.15 K	298.15 K	303.15 K	308.15 K	313.15 K
in acetonitrile	0.00554	0.00717	0.0092	0.0116	0.0144	0.018	0.0218	0.0265	0.0314
in ethanol	0.0172	0.0197	0.0226	0.0253	0.0285	0.0321	0.0358	0.0397	0.0445
in ethyl acetate	0.0152	0.0173	0.0196	0.0223	0.0253	0.0284	0.0323	0.0368	0.0419
in methanol	0.0108	0.013	0.0153	0.0179	0.0208	0.0238	0.0274	0.0312	0.0354
in n-propanol	0.0199	0.0222	0.0249	0.028	0.0317	0.0353	0.0393	0.0433	0.0472

Reference: BigSolDB 2.1
